Measured values taken from patent US20240141291A1, “FUNCTIONAL BRAIN REGION-SPECIFIC NEURAL SPHEROIDS AND METHODS OF USE” (THE UNITED STATES OF AMERICA, AS REPRESENTED BY THE …, priority 2021, published 2024).
Values joined by “and” are separate entries in the source; they are usually repeats but may differ in a detail not shown here. Identical values can stand only once. “Also recorded” adds a separate entry of the source.

Tests used:
Type in all cases: cell-based, human
[1] = test system: PFC-like spheroids; assay: FLIPR calcium activity profiling, compound addition (Examples 1-2); settings: FLIPR recordings 1-, 30-, 70-min after compound (t1, t30, t70)
Protocol: (§1) To examine neuronal activity changes as a response to compound treatment, calcium activity was assessed using a Fluorescent Imaging Plate Reader (FLIPR) Penta (Molecular Devices). FLIPR Calcium 6 Assay kits were purchased from Molecular Devices (PN: R8190). On day of activity profiling, 96-well or 384-well ULA round bottom (black sides, clear bottom) plates containing spheroids were removed from incubator. Fresh FLIPR Calcium 6 dye was prepared by diluting each vial in 10 ml of freshly prepared, phenol-free complete spheroid maturation media and vortexed for 2 minutes. Half of the media was removed from each well (45 μl from 384-well plate wells, 100 ul from 96-well plate wells) and replaced with equal amounts freshly prepared FLIPR Calcium 6 dye, followed by a 2-hour incubation in the dark in a 37 C, 5% CO2 incubator. After 2-hours, plates were removed and kept at room temperature for 10 minutes, then imaged and calcium activity read using the Molecular Devices FLIPR Penta High-Throughput Cellular Screening System. The FLIPR incubator stage was pre-warmed to 37° C. approximately 30 minutes prior to imaging. Standard filter sets were used for Cal6 imaging (excitation 470-495 and emission 515-575 nm). FLIPR recordings were obtained with the camera in normal mode, and settings included: gain was set to 2.5, exposure time to 0.03 seconds, and excitation intensity to 50%. Fluorescent image reads were taken every 0.6 seconds for a total of 1000 reads over a total run time of 10 minutes. Four recordings total were captured: baseline activity, 1-min after compound treatment, 30- and 70-min after compound treatment.
(§2) After baseline activity, cell plates were removed from the FLIPR and transferred to a 384-well pin tool instrument. Prior to compound addition, the pin tool was subjected to 4 wash cycles exposing the pins to water, methanol, and DMSO each time. Compounds, including either “QC compounds” (compounds with known mechanism of action, listed in results) or the mu opioid receptor selective-agonist DAMGO, were transferred from a compound source plate to the 384-well spheroid plate. Immediately after compound transfer, the cell plate was placed back in the FLIPR for the recording that was 1-min after compound transfer to begin. After this 10-min recording, another recording was captured 30-min after compounds were transferred. After the 30-min recording, the plate was again removed from the FLIPR and transferred to the pin tool instrument. During this phase of compound transfer, naloxone was transferred to wells that received DAMGO during the first compound transfer. Following this second compound transfer, the cell plate was placed back in the FLIPR and a final recording was obtained 30-min later, and 70-min after the initial compound transfer.
(§3) The FLIPR software ScreenWorks PeakPro 2.0 was used for the initial analysis of calcium activity using automated peak detection settings. With these settings, average peak statistics over each 10-min recording for each well were exported from PeakPro to Microsoft Excel. ScreenWorks Peak Pro 2.0 software was used to extract 17 activity features describing different aspects of calcium activity profiles. These included peak amplitude (PkA), peak amplitude standard deviation (PkASD), peak count (PkCt), peak rate (measured as peaks per minute, PpM), peak rate SD, peak spacing (PkSp), peak spacing SD (PkSpSD), peak spacing regularity, area under the curve (AUC), AUC SD, peak rise slope, peak rise slope SD, peak rise time (PkRt), peak ride time SD (PkRtSD), peak decay slope, peak decay slope SD, peak decay time (PkDt), and peak decay time SD (PkDtSD). To assess variability of these peak parameters, percent coefficients of variance (CV) were calculated by dividing the standard deviation/mean and multiplying by 100 for each designer spheroid type, and those with % CV's […] 20% were removed from future analysis. […]

[2] = test system: VTA-like spheroids; assay: as above; settings: FLIPR recordings 1-, 30-, 70-min after compound (t1, t30, t70)
Protocol: as §1, §2, §3

[3] = test system: PFC-like spheroids; assay: FLIPR calcium activity with Cal6 dye, control compounds / DAMGO / AD compounds (Example 3)
Protocol: Viruses and dyes: To assess calcium activity, the calcium dye, Cal6 (Molecular Devices), and genetically encoded calcium indicator, GCaMP6f (Addgene, cat #100836-AAV9) were used. Cal6 was used according to manufacturer's instructions and 10 mL of maintenance media was added to each vial. Two hours before activity was recorded, half of the spheroid media was exchanged for media with Cal6. The plates were covered in foil and placed in the incubator at 37° C. during the 2-hour (hr) incubation period. Since all viruses used were adeno-associated viruses (AAV), they were added to the media on day 7 to allow for 2-weeks expression prior to recording or testing. All viruses were added to the media at 2e5 multiplicity of infection (MOI). GCaMP6f infection occurred via an adeno-associated virus serotype 9 (AAV9) expressed under the CAG promoter for expression in both neurons and astrocytes. Designer receptors exclusively activated by designer drugs (DREADDs) viruses were used to stimulate and inhibit neuronal activity within spheroids. Both viruses were retrograde AAVs expressed under the human Synapsin promoter for expression in neurons and fused with an mCherry fluorophore. The DREADDs viruses either inserted the designer receptor hM4D(Gi), an inhibitory G-protein coupled receptor, or hM3D(Gq), a stimulatory G-protein coupled receptor. Clozapine-N-oxide (CNO, Tocris cat #4936) was suspended in dimethyl sulfoxide (DMSO) and used as the designer drug to activate the DREADDs viruses. CNO was tested at 1 and 10 μM, with data reported from the 1 μM concentration.
(§4) Fluorescent Imaging plate Reader (FLIPR): The FLIPR Penta (Molecular Devices) was used to assess calcium fluorescence across the 384-well plate simultaneously and to observe changes after treatment with compounds. The evening before calcium activity was measured, plates were sealed with parafilm and centrifuged at 1485×g for 2-min to get spheroids to the bottom of the well in a centered position. On the day of recording, the plate used for recording was placed in the read plate position inside of the FLIPR following the 2-hour Cal6 incubation at 37° C. Standard filter sets were used for Cal6 imaging with excitation set at 470-495 and emission at 515-575 nm. Fluorescent image reads were taken every 0.6 seconds for all plates, with exposure time of 0.03 and 50% excitation intensity. Recordings from the initial seven plates consisted of 1000 reads and were 10-min recordings with 2.5 gain, while the final two plates consisted of 500 reads (5-min recordings) with a gain of 2. Baseline recordings were taken across all plates and, if applicable, more recordings were obtained 1-, 30-, 60-, and/or 90-min after compound treatment. In between recordings, plates were wrapped in foil and placed back in the incubator at 37° C.
DAMGO was reconstituted in water at a 1 mM concentration and diluted in media to 20 µM such that spheroids would be treated with a final concentration of 10 μM after the half media exchange. Two aspects of OUD were modeled, chronic treatment along with opioid withdrawal. For spheroids subjected to chronic DAMGO treatment, 20 μM DAMGO in maintenance media was added via half media exchange beginning on day 10, with treatments occurring every other day for 10 days, giving a total of five treatments.
(§5) 384 Pin Tool: A 384 well pin tool (Rexroth) was used to transfer compounds simultaneously to the spheroid plate. Prior to compound transfer, the pin tool went through four wash cycles where pins were rinsed with dimethyl sulfoxide (DMSO), followed by methanol, then deionized (DI) water, to ensure the pins were clean. Compound transfer via the 384 well pin tool occurred after the baseline recordings with the fluorescent imaging plate reader (FLIPR). Here, 60 nL of compound suspended in DMSO was transferred to 60 µL of media in each well, diluting the compounds by 1000-fold and giving a final DMSO concentration of 0.1%.

[4] = test system: A53T VTA-like spheroids; assay: Parkinson's Disease model, FLIPR calcium activity after compound treatment; settings: 90-min after treatment; for reversal of A53T-induced deficits (peak count, peak width): Ropinirole 1, 3 and 10 μM
Protocol: as §4
as §5, with “0.1%. Immediately after compound transfer, the spheroid plate was either placed back inside of the FLIPR for a recording 1-min after compound treatment or placed back in the incubator if post-treatment recording was >30-min after compound transfer.” for “0.1%.”
Calcium Activity Analysis: Calcium oscillatory peak detection data from FLIPR recordings was obtained through ScreenWorks 5.1 (Molecular Devices). Initial peak detection analysis occurred within ScreenWorks 5.1 via the PeakPro 2.0 module. Here, all parameters were set to be the same for all wells per plate. The event polarity was always set to positive and search vector length always set to 11. The baseline, trigger level, which is automatically set to 10% above the baseline, and dynamic threshold, which is the threshold for peak detection were automatically identified by the PeakPro 2.0 module. Wells were manually checked to ensure these parameters were accurately identified prior to analysis. After analysis, data from 18 peak parameters (mean peak amplitude, peak amplitude standard deviation (SD), peak count, mean peak rate, peak rate SD, peak spacing, peaking spacing SD, mean number of EAD-like peaks per well, CTD @ 50% (peak width at 50% amplitude), CTD @ 90% (peak width at 90% amplitude), rise slope, rise slope SD, mean peak rise time, peak rise time SD, decay slope, decay slope SD, mean peak decay time, and peak decay time SD) was exported to a STATALL file that could be converted to a Microsoft Excel spreadsheet. There, percent coefficient of variance (% CV) was calculated within each plate to measure how variable each parameter exported was. […] All data was normalized to the average of DMSO-treated control wells within each plate. […] Bar plots with individual values are reported as mean±SEM.

NC(CCCP(=O)(O)O)C(=O)O (stereo not shown) [AP5]
effect on calcium activity peak parameters compared to DMSO controls [1]: did not impact calcium activity | effect on calcium activity peak parameters compared to DMSO controls [2]: did not impact calcium activity

CCN(C)C(=O)Oc1cccc([C@H](C)N(C)C)c1 [Rivastigmine]
effect on peak count and spacing in Wt PFC-like spheroids ([3]; Wt PFC-like spheroids, 90 min after treatment): differences were observed in all groups except Rivastigmine

C#CCN[C@@H]1CCc2ccccc21 [Rasagiline]
reversal of A53T-induced deficits (peak count, peak width) [4]: only Ropinirole was found to reverse this 90-min after treatment

Nc1ccncc1 [4-AP, 4-aminopyradine]
effect on calcium activity peak parameters compared to DMSO controls [1]: significantly increased PkCt 1-min after exposure; also recorded: For the t30 recording, there was a significant increase in peaks per minute (PpM) and the decay slope; also recorded: Significant increases in PkCt and PpM as well as a reduction in PkSp resulted from 4-AP 70-min after exposure | effect on calcium activity peak parameters compared to DMSO controls [2]: did not have any impact on PkCt, PkA, PpM, or PkSp at t1, t30, or t70; also recorded: significantly reduced PkDt at t1; also recorded: trend toward statistical significance for increasing the decay slope

OC(CCN1CCCCC1)(c1ccccc1)C1CCCCC1 (stereo not shown) [Trihexyphenidyl]
reversal of A53T-induced deficits (peak count, peak width) [4]: only Ropinirole was found to reverse this 90-min after treatment

CCCN(CCC)CCc1cccc2c1CC(=O)N2 [Ropinirole]
effect on subpeak count [4]: 3 and 10 μM, but not 1 μM, Ropinirole significantly reduced subpeak count | reversal of A53T-induced deficits (peak count, peak width) [4]: significantly reduce peak count and increase peak width to the level that they were no longer significantly different from Wt DMSO-treated control spheroids; also recorded: restored deficits across all 3 peak measures

NC12CC3CC(CC(C3)C1)C2 [Amantadine]
reversal of A53T-induced deficits (peak count, peak width) [4]: only Ropinirole was found to reverse this 90-min after treatment

N[C@@H](Cc1ccc(O)c(O)c1)C(=O)O [L-Dopa]
reversal of A53T-induced deficits (peak count, peak width) [4]: only Ropinirole was found to reverse this 90-min after treatment

CN1[C@@H]2CC[C@H]1C[C@@H](OC(c1ccccc1)c1ccccc1)C2 [Benztropine]
reversal of A53T-induced deficits (peak count, peak width) [4]: only Ropinirole was found to reverse this 90-min after treatment

Cc1ccc(C(=O)c2cc(O)c(O)c([N+](=O)[O-])c2)cc1 [Tolcapone]
reversal of A53T-induced deficits (peak count, peak width) [4]: only Ropinirole was found to reverse this 90-min after treatment

N#Cc1cc2[nH]c(=O)c(=O)[nH]c2cc1[N+](=O)[O-] [CNQX]
effect on calcium activity peak parameters compared to DMSO controls [1]: total inhibition of calcium activity that lasted throughout the entire recording period | effect on calcium activity peak parameters compared to DMSO controls [2]: total inhibition of calcium activity during the t1 recording and 30-min after CNQX treatment, PkCt and PpM were significantly increased while PkA, PkSp, and PkDt were all still reduced and had no impact on calcium activity in VTA-like spheroids during the t70 recording | functional response (calcium activity peak parameters) to control compound ([3]; PFC-like spheroids, recordings 1-, 30-, 60-min after treatment): inhibited all activity in PFC-like spheroids for all three recordings (1-, 30-, and 60-min); also recorded: total inhibition that lasted throughout the 1-hr period
